Source: patent US20130102009A1, “SIRTUIN ACTIVATORS AND ACTIVATION ASSAYS” (priority 2010, published 2013)
pKd: −log10 of the molar value. “Also recorded” adds a separate entry of the source. Counter-ions that a name gives are not always drawn.

What was measured:
[1] = molecular target: T1, SIRT1 (Homo sapiens, UniProt Q96EB6); assay: Mass spectrometry based SIRT1 activation assay (TAMRA/5TMR-labeled 20mer peptide); format: biochemical; details: for Emax: 25 min, percent maximum fold activation of SIRT1, read-out: % FOLD ACT.; for EC1.5 uM: concentration that results in 150% activation of SIRT1
T1 sequence (Q96EB6 1-747): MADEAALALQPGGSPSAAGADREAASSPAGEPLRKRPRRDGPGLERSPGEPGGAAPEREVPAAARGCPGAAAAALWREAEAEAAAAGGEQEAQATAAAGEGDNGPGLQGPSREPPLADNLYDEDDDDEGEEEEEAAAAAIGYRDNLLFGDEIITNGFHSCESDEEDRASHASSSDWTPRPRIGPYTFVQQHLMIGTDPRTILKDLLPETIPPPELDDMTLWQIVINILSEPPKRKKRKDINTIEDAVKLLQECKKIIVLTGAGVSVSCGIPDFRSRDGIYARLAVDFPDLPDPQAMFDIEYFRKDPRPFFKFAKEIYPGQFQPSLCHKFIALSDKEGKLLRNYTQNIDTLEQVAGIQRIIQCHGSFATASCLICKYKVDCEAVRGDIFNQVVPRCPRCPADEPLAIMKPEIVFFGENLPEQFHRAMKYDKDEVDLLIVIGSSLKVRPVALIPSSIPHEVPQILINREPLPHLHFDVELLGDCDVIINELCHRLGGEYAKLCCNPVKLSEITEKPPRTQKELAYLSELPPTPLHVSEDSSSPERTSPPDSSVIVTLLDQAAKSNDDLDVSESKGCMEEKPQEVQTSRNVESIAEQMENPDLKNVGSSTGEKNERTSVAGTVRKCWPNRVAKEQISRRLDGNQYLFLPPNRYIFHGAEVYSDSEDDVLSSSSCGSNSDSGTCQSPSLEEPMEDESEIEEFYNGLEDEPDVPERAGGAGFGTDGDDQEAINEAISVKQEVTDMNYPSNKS
Description: A mass spectrometry based assay was used to identify modulators of SIRTI activity. The mass spectrometry based assay utilizes a peptide having 20 amino acid residues as follows: Ac-EE-K(biotin)-GQSTSSHSK(Ac)NleSTEG-K(5TMR)-EE-NH2 (SEQ ID NO: 1) wherein K(Ac) is an acetylated lysine residue and Nle is a norleucine. The peptide is labeled with the fluorophore 5TMR (excitation 540 nrnIemission 580 nm) at the C-terminus. The sequence of the peptide substrate is based on p53 with several modifications. In addition, the methionine residue naturally present in the sequence was replaced with the norleucine because the methionine may be susceptible to oxidation during synthesis and purification.
The mass spectrometry assay is conducted as follows: 0.5 J-1M peptide substrate and 120 μM βNAD^+ is incubated with 10 nM SIRT1 for 25 minutes at 25° C. in a reaction buffer (50 mM Tris-acetate pH 8, 137 mM NaCl, 2.7 mM KCl, 1 mM MgClz, 5 mM DTT, 0.05% BSA). Test compounds may be added to the reaction as described above. The SirTI gene is cloned into a T7-promoter containing vector and transformed into BL21 (DE3). After the 25 minute incubation with SIRT1, 10 μL of 10% formic acid is added to stop the reaction. Reactions are sealed and frozen for later mass spec analysis. Determination of the mass of the substrate peptide allows for precise determination of the degree of acetylation (i.e. starting material) as compared to deacetylated peptide (product).
A control for inhibition of sirtuin activity is conducted by adding 1 μL of 500 mM nicotinamide as a negative control at the start of the reaction (e.g., permits determination of maximum sirtuin inhibition). A control for activation of sirtuin activity is conducted using 10 nM of sirtuin protein, with 1 μL of DMSO in place of compound, to determine the amount of deacetylation of the substrate at a given timepoint within the linear range of the assay. This timepoint is the same as that used for test compounds and, within the linear range, the endpoint represents a change in velocity.
For the above assay, SIRTI protein was expressed and purified as follows. The SirT1 gene was cloned into a T7-promoter containing vector and transformed into BL21(DE3). The protein was expressed by induction with 1 mM IPTG as an N-terminal His-tag fusion protein at 18° C. overnight and harvested at 30,000×g. Cells were lysed with lysozyme in lysis buffer (50 mM Tris-HCl, 2 mM Tris[2-carboxyethyl]phosphine (TCEP), 10 μM ZnCl2, 200 mM NaCl) and further treated with sonication for 10 min for complete lysis. The protein was purified over a Ni-NTA column (Amersham) and fractions containing pure protein were pooled, concentrated and run over a sizing column (Sephadex S200 26/60 global). The peak containing soluble protein was collected and run on an Ion-exchange column (MonoQ). Gradient elution (200 mM-500 mM NaCl) yielded pure 20 protein. This protein was concentrated and dialyzed against dialysis buffer (20 mM TrisHCl, 2 mM TCEP) overnight. The protein was aliquoted and frozen at −80° C. until further use.
Sirtuin modulating compounds that activated SIRT1 were identified using the assay described above and are shown below in Table 4. The EC1.5 values represent the concentration of test compounds that result in 150% activation of SIRT1. The EC1.5 values for the activating compounds are represented by A (EC1.5≦1 μM), B (EC1.5>1 μM). The percent maximum fold activation is represented by A (Fold activation ≧200%) or B (Fold Activation <200%).

[2] = molecular target: TAMRA-peptide; assay: ITC binding of STACs to TAMRA-peptide; details: 26° C.; for pKd: pH 7.3, read-out: Kd for the binding of activator to TAMRA-peptide
Experimental: ITC experiments were performed using either a VP-ITC system or iTC200 system (MicroCal) at 26° C. in a buffer composed of 137 mM NaCl, 2.7 mM KCl, 1 mM MgCl2, 2 mM TCEP, 5% (v/v) glycerol and 50 mM HEPES-NaOH, pH 7.3. SIRT1(183-664) was purified and dialyzed against the buffer, centrifuged, and degassed before the experiment. The peptide and compounds were dissolved in the final dialysis buffer and their pH values were adjusted to match that of the protein solution. […] To characterize this interaction using the iTC200 system, 1 mM TAMRA-peptide was injected in 20 aliquots of 2 μL, (except the first injection, which was 0.5 μL) into a 0.202 mL sample cell containing 100 μM STAC. For STACs with poor solubility, the concentrations were adjusted accordingly. […] In all cases, data was corrected for the heat of dilution and fitted using a nonlinear least-squares routine using a single-site binding model with Origin for ITC v7.0383 (Microcal) with the stoichiometry (n), the enthalpy of the reaction (ΔH) and the association constant (Ka) calculated.

SMILES	Emax [1]	EC1.5 uM [1]	Kd for the binding of activator to TAMRA-peptide ([2]; pH 7.3)	pKd [2]
CN(C)Cc1cnc2sc(-c3ccccc3NC(=O)c3cnc4ccccc4n3)nc2c1 [Compound 2, N-(2-(6-((dimethylamino)methyl)thiazolo[5,4-b]pyridin-2-yl)phenyl)quinoxaline-2-carboxamide]	< 200%	B (EC1.5>1 μM)		
Cc1nc(-c2cccnc2)sc1C(=O)Nc1ccccc1-c1cn2c(CN3CC4CC3CN4)csc2n1 (stereo not drawn) [Compound 4, N-(2-(3-(2,5-diazabicyclo[2.2.1]heptan-2-ylmethyl)imidazo[2,1-b]thiazol-6-yl)phenyl)-4-methyl-2-(pyridin-3-yl)thiazole-5-carboxamide]	≥ 200%	A (EC1.5≦1 μM)	no detectable binding; also recorded: lack of binding	< 4.00
CCCCc1nc(NC2CCNCC2)cc(C(=O)Nc2ccccc2-c2nc3cc(COC4CCNCC4)cnc3s2)n1 [Compound 10, 2-butyl-6-(piperidin-4-ylamino)-N-(2-(6-((piperidin-4-yloxy)methyl)thiazolo[5,4-b]pyridin-2-yl)phenyl)pyrimidine-4-carboxamide]	≥ 200%	A (EC1.5≦1 μM)		5.60
CN(C)CCCNc1cc(-c2nc3c(NC(=O)c4ccc(CN5CCNCC5)cc4)cccc3[nH]2)ccn1 [Compound 14, N-(2-(2-(3-(dimethylamino)propylamino)pyridin-4-yl)-1H-benzo[d]imidazol-4-yl)-4-(piperazin-1-ylmethyl)benzamide trihydrochloride]	≥ 200%	A (EC1.5≦1 μM)		
COc1cc(C(=O)Nc2ccccc2-c2cn3c(CN4CCNCC4)csc3n2)cc(OC)c1OC [SRT1460]				3.85
